Experimental data taken from the METLIN SMRT retention time set (Domingo-Almenara et al. 2019).

Assay: gradient 5% acetonitrile 3 min, to 50% in 2 min, to 85% in 15 min, held 3 min, 100 µL/min
Conditions: column: Zorbax Extend-C18 2.1 x 50 mm; eluents: water / acetonitrile, 0.1% formic acid
How it was run: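 Retention time was recorded from adduct peaks, which were picked computationally and each inspected manually. Pure standards ran in mixtures of ~100 molecules on HPLC coupled to a quadrupole time-of-flight mass spectrometer, in positive and negative ionization mode, through a Zorbax Extend-C18 column (2.1 × 50 mm, 1.8 μm) at 100 μL/min. Eluents were water and acetonitrile, each with 0.1% formic acid.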

| RP-LC retention time | SMILES |
| --- | --- |
| 651 s | Cc1ccc2nc(Nc3ncc4c(n3)CC(C)CC4=O)nc(C)c2c1 (configuration not stated) |
| 756 s | COc1ccc(S(=O)(=O)N2CCN(c3cc(C)nc(NC4CCCCC4)n3)CC2)cc1OC |
| 628 s | O=C(COc1ccccc1Cl)N1CCN(c2cc(-c3ccccc3)ncn2)CC1 |
| 555 s | Cc1nc(C)c(C(=O)N2CCC3(CC2)CCC(O)(CN(C)C)CC3)s1 |
| 690 s | O=C(O)c1cc(-c2ccc3c(c2)OCO3)nc2cc3c(cc12)OCCO3 |
| 832 s | CCc1onc(C)c1C1CCCN1C(=O)Nc1cccc(F)c1 (configuration not stated) |
| 574 s | CCOC(=O)N1CCN(C(=O)CSc2nc(=O)[nH]c3c2CCC3)CC1 |
| 546 s | CC(C)N1CCC(CNC(=O)c2cccc3ccccc23)CC1 |
| 767 s | Cc1ccc(NC(=O)N2CCCC2c2nncn2-c2ccccc2)cc1C (configuration not stated) |
| 888 s | COc1ccc(C2CCCN2C(=O)c2cccs2)cc1 (configuration not stated) |
| 789 s | CCN1C(=O)CCC2(C(=O)Nc3ccc(OC)cc3OC)CCCC=C12 (configuration not stated) |
| 587 s | CC1CCN(C(=O)c2ccc3c(c2)n(C)c(=O)c2ccnn23)CC1 |
| 613 s | Cn1ncc(N2CCCC(CC(=O)O)C2)cc1=O (configuration not stated) |
| 796 s | O=C1CC(c2ccco2)Sc2nc3ccccc3n21 (configuration not stated) |
| 751 s | CN1c2cc(F)ccc2C(=O)NC12CCN(C(=O)c1ccccc1F)CC2 |
| 779 s | Cc1nn(C2CCS(=O)(=O)C2)c2nc(-c3ccc(F)cc3)cc(C(=O)N3CCCC3)c12 (configuration not stated) |
| 855 s | O=C(Nc1ccc2c(c1)CCC(=O)N2Cc1ccccc1)c1ccccc1C(F)(F)F |
| 898 s | O=C(CN1C(=O)C(C(=O)N2CCCC2)Sc2ccccc21)NCCc1ccccc1 (configuration not stated) |
| 718 s | CC(C(=O)N1CCOCC1)C1CCN(C(=O)c2ccc3nc(-c4ccccc4)oc3c2)CC1 (configuration not stated) |
| 596 s | Cc1nn2c(CNS(=O)(=O)c3c(C)nn(C)c3C)c(C)nc2s1 |
| 1010 s | CN(C)c1ccc(-c2nc(-c3cn(Cc4ccc(F)cc4)nn3)no2)cc1 |
| 702 s | COC(=O)c1c(C)[nH]c(C(=O)N2CCC(CC(=O)NCc3ccc(C)o3)CC2)c1C |
| 887 s | O=C(O)c1ccc2c(c1Sc1ccccc1)C(=O)c1ccccc1C2=O |

| RP-LC retention time | SMILES |
| --- | --- |
| 895 s | COc1ccccc1-c1nnc(-c2ccc(C)c(S(=O)(=O)N(C)C)c2)o1 |
| 794 s | Cn1cc(CN2CCC(C(=O)N3CCN(c4ccccc4F)CC3)CC2)c2cc(Cl)ccc21 |
| 1220 s | Cc1ccc(-c2cc3c(=O)n(Cc4nc(-c5ccccc5Cl)no4)ncn3n2)c(C)c1 |
| 742 s | O=C(CCNc1c(-c2cccc(F)c2)nc2cnccn12)NCc1ccccc1F |
| 793 s | Cc1cc2nc(Nc3ncc4c(n3)CC(c3ccccc3)CC4=O)nc(C)c2cc1C (configuration not stated) |
| 1250 s | CC(C)Cn1c(=O)c2ccccc2n(Cc2nc(-c3cccc(Cl)c3)no2)c1=O |
| 649 s | O=C(NC1CCCCC1)C1CCN(c2cnc(N3CCCC3)nc2)CC1 |
| 1040 s | CCOC(=O)c1oc2ccccc2c1NC(=O)c1ccc([N+](=O)[O-])s1 |
| 1060 s | CCOC(=O)c1noc2ncnc(Nc3ccc(CC)cc3)c12 |
| 757 s | Cc1cccc(CNC(=O)C2CCN(c3nnc4c(Cl)cccn34)CC2)c1C |
| 870 s | CCOc1ccc(OCC)c(NC(=O)Cc2csc3nc(-c4ccc(OC)c(OC)c4)cn23)c1 |
| 515 s | CC(=O)N1CCN(C(=O)c2ccc(O)cc2)CC1 |
| 772 s | CC1CCC2(CC1)NC(=O)N(CC(=O)NCc1ccccc1F)C2=O (configuration not stated) |
| 665 s | CCCNC(=O)C1CCN(c2ccc(SCC(=O)Nc3ccc(F)c(F)c3)nn2)CC1 |
| 932 s | O=C(C1Cc2ccccc2CN1S(=O)(=O)c1cccs1)N1CCCCCC1 (configuration not stated) |
| 618 s | CCOC(=O)CN1CC2=C(C1=O)C(c1ccc(OC)cc1)NC(=O)N2 (configuration not stated) |
| 612 s | O=C(CN1C(=O)CSc2ccc(C(=O)N3CCCCC3)cc21)NCCN1CCCCC1 |
| 726 s | O=C(NCc1ccccc1Cl)C1CCc2nc(N3CCOCC3)ncc2C1 (configuration not stated) |
| 1260 s | Cc1ccc(N2CCN(C(=O)c3sc4ncccc4c3-n3cccc3)CC2)c(C)c1 |
| 643 s | N#Cc1ccc(C(=O)Nc2ccc(-c3nnc4n3CCCC4)cc2)cc1 |
| 912 s | Cc1cccc(-n2c(=O)c3c(cc(C)n3C)n(CC(=O)Nc3ccc(C)c(C)c3)c2=O)c1 |
| 1040 s | CCN1CCN(c2nc3c(c(Nc4ccccc4)n2)C(=O)CCC3)CC1 |
| 648 s | Cc1ccc(-c2n[nH]c3c2CN(C(=O)c2cnn4cccnc24)CC3)cc1 |

| RP-LC retention time | SMILES |
| --- | --- |
| 592 s | Cc1ccc(-c2nc(CN3CCN(C(=O)NC(C)C)CC3)c(C)o2)cc1 |
| 891 s | O=C(Cn1ccn2nc(-c3ccc(F)cc3)c(CO)c2c1=O)Nc1ccc(Br)cc1 |
| 570 s | Cc1ccc2cc(CCC(=O)NCc3ccncc3)c(=O)[nH]c2c1 |
| 871 s | Cc1ccc(C(=O)NCc2nc(-c3ccc4c(c3)oc(=O)n4C(C)C)no2)cc1 |
| 1030 s | COc1ccc(-c2noc(CC3CCN(C(=O)C4(c5ccc(OC)cc5)CC4)CC3)n2)cc1 |
| 754 s | COc1cccc2cc(C(=O)NCC3CCN(S(=O)(=O)C4CC4)CC3)oc12 |
| 901 s | CCOCCCNC(=O)N1c2ccccc2CC1c1nc(C(C)C)no1 (configuration not stated) |
| 1110 s | CSc1ccc(CNC(=O)c2c(C)oc3ccn(Cc4cccc(F)c4)c(=O)c23)cc1 |
| 715 s | CC1(C)Cc2cccc(OCC(=O)NCC3CCN(S(C)(=O)=O)CC3)c2O1 |
| 1210 s | Cc1csc(-c2cc(S(=O)(=O)N3CCCc4ccccc43)c(C)s2)n1 |
| 832 s | Cc1ccc(C)c(N2CCN(C(=O)C3CCN(S(=O)(=O)c4cn(C)cn4)CC3)CC2)c1 |
| 808 s | CCOCCCNC(=O)C1(C)Cn2c(ccc2-c2ccco2)C(=O)N1c1ccc(F)cc1 (configuration not stated) |
| 536 s | O=C(CCC1CCN(c2cc(NC3CC3)ncn2)CC1)N1CCN(c2ccccn2)CC1 |
| 802 s | CCOC(=O)c1cccc(N2C=C(C(=O)N3CCCC3)S(=O)(=O)c3ccccc32)c1 |
| 714 s | O=C(c1ccc(-n2cccn2)nc1)N1CCSCC1 |
| 625 s | COc1cccc(Cn2c(C)c(CNCc3cccnc3)c(C(=O)O)c2C)c1 |
| 698 s | CS(=O)(=O)N1CCCN(C(=O)Nc2ccccc2)CCNC(=O)CC1c1ccccc1 (configuration not stated) |
| 781 s | COc1ccc(NC(=O)NC2CCN(c3ccc(F)cc3)C2=O)cc1F (configuration not stated) |
| 784 s | CCC(C)NC(=O)C1CCN(Cc2cc3ccccc3n2Cc2ccccc2Cl)CC1 (configuration not stated) |
| 626 s | CCOCC(=O)N1CC(F)(F)C[C@H]1c1nc(C(=O)NC)no1 |
| 706 s | CCn1cnnc1C1CCCCN1S(=O)(=O)c1ccccc1F (configuration not stated) |
